This note sets out measurements from paper PMC5213647, “Honokiol as a specific collagen receptor glycoprotein VI antagonist on human platelets: Functional ex vivo and in vivo studies” (Scientific Reports, 2017).

The assay deals with T1, collagen receptor glycoprotein VI (GP VI) (Homo sapiens, UniProt Q9HCN6).
T1 construct: gene GP6; native full-length receptor, captured from total human platelet lysate by immobilised anti-GP VI mAb on SPR chip; described as 60-65 kDa type I transmembrane glycoprotein
T1 sequence (Q9HCN6 21-339): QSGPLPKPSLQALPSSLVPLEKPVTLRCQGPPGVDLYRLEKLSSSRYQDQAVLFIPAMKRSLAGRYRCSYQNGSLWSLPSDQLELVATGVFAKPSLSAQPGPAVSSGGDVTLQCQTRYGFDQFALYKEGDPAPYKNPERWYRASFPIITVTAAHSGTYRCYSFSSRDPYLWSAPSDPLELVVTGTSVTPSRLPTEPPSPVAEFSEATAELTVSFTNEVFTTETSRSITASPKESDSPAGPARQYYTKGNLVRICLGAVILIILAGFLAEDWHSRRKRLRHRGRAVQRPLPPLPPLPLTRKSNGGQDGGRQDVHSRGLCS
In words: SPR (ProteOn XPR36), GP VI captured by immobilised anti-GP VI mAb, kinetic […] Langmuir fit. The assay is classed as binding. The settings on record: PBS with 0.005% Tween 20, pH 7.4, 25 °C; native GP VI captured from platelet lysate; analyte only 10 and 100 μM.

`C=CCc1ccc(O)c(-c2ccc(O)c(CC=C)c2)c1` [Honokiol] registered a Kd of 289 µM.

A word on the Kd: it is the free concentration of one partner at which half of the binding sites on the other are occupied at equilibrium, for simple one-to-one binding. A higher Kd goes with weaker binding.
